Legend:
[1] = system: human iPS cells (AiPS, DiPS colonies); experiment: DOFLA screening (primary, secondary, tertiary) of fluorescent probes on iPS cells versus original somatic cells; assay type: cell-based
Procedure: (§1) The chemical properties of the BDL library are previously described (Jeong et al., 2015). BDL-E5 is based on 4,4-difluoro-4-bora-3a,4a-diaza-s-indacene (BODIPY), with calculated mass of 528.3 and absorption maximum/emission maximum of 578/599 nm. Primary, secondary and tertiary screening of fluorescent probes on AiPS, ASCs, DiPS and DPSCs were performed as described previously (Im, et al. (2010). Angew Chem Int Ed Engl 49, 7497-7500; Kang, et al. (2011). Nat Protoc 6, 1044-1052) and in the Results section. Unless described otherwise, BDL-E5 and CDy1 images were acquired by the Tetramethylrhodamine (TRITC) channel of ImageXpress Micro High-Content Imaging System, which had the Adaptive Background Correction function enabled.
A high-throughput system using in-house Diversity Orientated Fluorescence Library Approach (DOFLA) was employed to screen 46 fluorescent probes that the inventors predicted may specifically recognize pluripotent stem cells. To identify fluorescent probes that detected human pluripotent stem cells, ASCs, ASC-derived iPS (AiPS) cells, DPSCs, and DPSC-derived iPS (DiPS) cells were used. […] Cells were seeded onto 384-well plates (primary screen) or 96-well plates (secondary and tertiary screen) coated with mouse embryonic fibroblasts (MEF) or matrigel (MG) for DOFLA screening (FIG. 1A). After 48 h, cells were stained with library probes (500 nM) for 1 h. Fluorescence was imaged using the ImageXpress System under the following conditions: “No wash” (after 1 h probe incubation), “Wash 0 min” (after one wash with PBS), “Wash 60 min” (after wash and destain for 1 h) and “Wash 180 min” (after wash and destain for 3 h) (FIG. 1A).
Images were analyzed using the MetaXpress Image Acquisition and Analysis software. Following tertiary screening, two probes were shortlisted to develop further as pluripotent probes: BDL-E5 and CDy1. The chemical structure of BDL-E5 is depicted in FIG. 1B.
Secondary screening was performed to confirm that the probes selectively stained different iPS colonies. […] The BDL-E5^+ colonies were also positively stained for the pluripotency marker TRA-1-60.
Based on the primary and secondary screenings for live fluorescent probes that can specifically identify pluripotent cells, BDL-E5 and CDy1 were chosen as two probes to further analyze. Tertiary screening was performed using the two probes on AiPS colonies under the following probe staining conditions: No wash, Wash 0 min, Wash 60 min, and Wash 180 min.

reprogrammed DPSCs = experiment: FACS of reprogrammed DPSCs stained with BDL-E5 at 7 dpn and iPS colony count; assay type: cell-based, human; conditions: DPSCs sorted at 7 dpn, seeded on MEF, two weeks
Procedure: Reprogrammed ASCs and DPSCs, AiPS and DiPS on D7 or D14 dpn were stained with BDL-E5 for 1 hour and then harvested using TrypLE and resuspended in 1×PBS. The cells were then subjected to FACS in the MoFlo XDP Cell Sorter (Beckman Coulter) under sterile conditions.
Different DPSC cell lines were reprogrammed using the feeder-free episomal method, incubated with BDL-E5, and subjected to fluorescence activated cell sorting (FACS) at 7 dpn. […] FIG. 10A (i) and (ii) represents the unstained DPSCs.
The cells were allowed to grow for the next two weeks until colonies appeared.

[2] = system: reprogrammed ASCs and DPSCs on microcarriers; experiment: Fluorescent probe staining on Cytodex 3 microcarriers (3D culture); assay type: cell-based, human; conditions: 14 and 21 dpn
Procedure: Reprogrammed monolayer ASCs and DPSCs were dissociated into single cell suspension using Dispase. Single cell suspension was transferred into a 6-well Suspension Culture Plate (Greiner bio-one) with Matrigel (Geltrex™, ThermoFisher)-coated Cytodex 3 microcarrier in 4 ml of mTeSR1 supplemented with 10 μM of Rock Inhibitor Y27632 (Calbiochem). The plate was placed on an orbital shaker (110 rpm) for at least 2 hours for cell attachment. Afterward, the plate was transferred to static condition and incubated at 37° C./5% CO2. Media change was carried out with mTeSR1 daily thereafter by aspirating […] of spent medium from the well and adding 4 ml of fresh media (80% medium exchange). On Day 7, the cells on microcarriers were supplemented and maintained with 4 ml of mTeSR1+SMC4 media. 80% medium change was carried out every day.
BDL-E5 probe staining of reprogrammed ASCs and DPSCs on microcarriers was carried out on Day 14 and 21 dpn. The microcarrier culture was washed twice with sterile D-PBS. Prior to staining, media was changed to mTeSR1 with 500 nM BDL-E5 probe and Alexa Fluor® 488 Mouse anti-human TRA-1-60 (200× dilution) (BD Pharmingen™). Cultures were incubated for 1 hour. The cells were then washed twice with D-PBS and replaced with mTeSR1 prior to imaging. Images were taken using Axio Observer Fluorescent Microscope (Carl Zeiss). […]

reprogramming DPSCs = experiment: Staining of DPSCs reprogrammed with retroviral Yamanaka factors on MEF; assay type: cell-based, human; conditions: retroviral OCT4, SOX2, KLF4, C-MYC
Excerpt: (§2) iPS cells were also generated from DPSCs with the traditional protocol involving retroviral vectors expressing OCT4, SOX2, KLF4, and C-MYC (Sugii, et al. (2011). Nature Protoc 6(3):346-358). BJ human neonatal fibroblasts were reprogrammed using lentiviral OCT4, SOX2, KLF4, and C-MYC as described previously (Toh, et al. (2016). Cell Rep 15(12):2597-2607).
(§3) We also tested whether BDL-E5 worked for commonly used reprogramming methods and cell type. DPSCs were infected with retroviral vectors expressing four Yamanaka factors, and plated onto MEF. […] In addition, BJ human fibroblasts were reprogrammed with lentiviral Yamanaka factors.

BJ human fibroblasts = experiment: Staining of BJ fibroblasts reprogrammed with lentiviral Yamanaka factors; assay type: cell-based
Excerpt: as §2, §3

DPSCs = experiment: Proliferation assay (Trypan Blue viable cell count); assay type: cell-based, human; conditions: 500 nM
Procedure: To ensure that BDL-E5 was not toxic to the cells, DPSCs were incubated with BDL-E5 (500 nM) for 48 h and 72 h and viable cells were counted in a haemocytometer using the Tryphan Blue method. DPSCs in which CREB1 was over-expressed or silenced were also counted at 72 h post nucleofection to determine if gene manipulation has affected the cell proliferation.

[3] = Absorption and emission maxima of the probe; assay type: physicochemical
Procedure: as §1

Structure (SMILES): COc1cc(F)c(/C=C/c2cc(C)c3n2[B-](F)(F)[N+]2=C(CCC(=O)NCCN(C)C)C=CC2=C3)cc1OC [BDL-E5]
- intensity of fluorescence in human iPS cells compared with original somatic cells and MEFs ([1]; 500 nM probe, 1 h, after tertiary screening): significantly increased intensity of fluorescence
- staining of AiPS colonies compared with original somatic cells (ASCs) ([1]; primary screening, MEF- or MG-coated plates, 500 nM, 1 h, BDL-E5 No wash): increased BDL-E5 staining
- staining of DiPS colonies compared with original DPSCs ([1]; secondary screening, MEF- or MG-coated plates, 500 nM, 1 h, BDL-E5 No wash): significantly increased fluorescence intensity
- wash condition under which staining (signal-to-background ratio) was greatest ([1]; tertiary screening, AiPS colonies on MEF-coated plates): No wash
- wash condition under which staining was greatest ([1]; tertiary screening, AiPS colonies on MG-coated plates): No wash
- iPS colonies from BDL-E5+ (top 10%) versus BDL-E5- (bottom 10%) sorted cells (reprogrammed DPSCs): gave rise to an increased number of iPSCs
- staining of reprogrammed cells on microcarriers ([2]; 500 nM, 1 h): clearly observed
- background staining of Cytodex 3 microcarriers themselves [2]: no background BDL-E5 staining
- earliest time of staining of reprogramming cells (reprogramming DPSCs): 7 dpi
- staining of reprogramming versus non-reprogramming cells (BJ human fibroblasts): successfully stained reprogramming, but not non-reprogramming cells
- staining strength compared with TRA-1-60 (BJ human fibroblasts): stronger than that of TRA-1-60
- toxicity to cells (DPSCs): not toxic
- absorption maximum [3]: 578 nm
- emission maximum [3]: 599 nm
